Where “and” joins values, the source holds several entries; their conditions need not be identical. Identical values can stand only once.
Assay: xn = mol fraction of the nth substance listed

CC(C)O + O
Settings	viscosity
293.15 K, 100 kPa, x1 = 0.2	3.802 mPa·s and 3.645 mPa·s
293.15 K, 100 kPa, x1 = 0.3	3.735 mPa·s
293.15 K, 101 kPa, x1 = 0.01	1.17 mPa·s
293.15 K, 101 kPa, x1 = 0.02	1.369 mPa·s
293.15 K, 101 kPa, x1 = 0.032	1.67 mPa·s
293.15 K, 101 kPa, x1 = 0.05	2.062 mPa·s
293.15 K, 101 kPa, x1 = 0.07069	2.544 mPa·s
293.15 K, 101 kPa, x1 = 0.1	3.054 mPa·s
293.15 K, 101 kPa, x1 = 0.11	3.26 mPa·s
293.15 K, 101 kPa, x1 = 0.2	3.741 mPa·s
293.15 K, 101 kPa, x1 = 0.23	3.875 mPa·s
293.15 K, 101 kPa, x1 = 0.41	3.493 mPa·s
298.15 K, 101 kPa, x1 = 0.01	1.029 mPa·s
298.15 K, 101 kPa, x1 = 0.02	1.188 mPa·s
298.15 K, 101 kPa, x1 = 0.032	1.416 mPa·s
298.15 K, 101 kPa, x1 = 0.07069	2.089 mPa·s
298.15 K, 101 kPa, x1 = 0.1	2.472 mPa·s
298.15 K, 101 kPa, x1 = 0.11	2.601 mPa·s
298.15 K, 101 kPa, x1 = 0.23	3.141 mPa·s
298.15 K, 101 kPa, x1 = 0.41	2.912 mPa·s
298.15 K, 101 kPa, x2 = 0.26	2.142 mPa·s
298.15 K, 101 kPa, x2 = 0.4678	2.527 mPa·s
298.15 K, 101 kPa, x2 = 0.6079	2.87 mPa·s
298.15 K, 101 kPa, x2 = 0.685	3.03 mPa·s
298.15 K, 101 kPa, x2 = 0.7249	3.054 mPa·s
298.15 K, 101 kPa, x2 = 0.805	2.978 mPa·s
298.15 K, 101 kPa, x2 = 0.89	2.431 mPa·s
298.15 K, 101 kPa, x2 = 0.9549	1.655 mPa·s
298.15 K, 101.33 kPa, x1 = 0.015	1.112 mPa·s
298.15 K, 101.33 kPa, x1 = 0.05	1.747 mPa·s
298.15 K, 101.33 kPa, x1 = 0.075	2.181 mPa·s
298.15 K, 101.33 kPa, x1 = 0.15	2.883 mPa·s
298.15 K, 101.33 kPa, x1 = 0.2	3.008 mPa·s
298.15 K, 101.33 kPa, x1 = 0.25	3.057 mPa·s
298.15 K, 101.33 kPa, x1 = 0.3	3.026 mPa·s
298.15 K, 101.33 kPa, x1 = 0.4	2.855 mPa·s
298.15 K, 101.33 kPa, x1 = 0.5	2.631 mPa·s
298.15 K, 101.33 kPa, x1 = 0.6	2.411 mPa·s
298.15 K, 101.33 kPa, x1 = 0.7	2.23 mPa·s
298.15 K, 101.33 kPa, x1 = 0.8	2.098 mPa·s
298.15 K, 101.33 kPa, x1 = 0.9	2.03 mPa·s
298.15 K, 101.33 kPa, x1 = 0.925	2.026 mPa·s
298.15 K, 101.33 kPa, x1 = 0.95	2.031 mPa·s
303.15 K, 100 kPa, x2 = 0.1	1.77 mPa·s
303.15 K, 100 kPa, x2 = 0.2	1.83 mPa·s
303.15 K, 100 kPa, x2 = 0.3	1.95 mPa·s
303.15 K, 100 kPa, x2 = 0.4	2.1 mPa·s
303.15 K, 100 kPa, x2 = 0.5	2.25 mPa·s
303.15 K, 100 kPa, x2 = 0.6	2.42 mPa·s
303.15 K, 100 kPa, x2 = 0.7	2.54 mPa·s
303.15 K, 100 kPa, x2 = 0.8	2.47 mPa·s
303.15 K, 100 kPa, x2 = 0.9	1.95 mPa·s
303.15 K, 101 kPa, x1 = 0.01	0.912 mPa·s
303.15 K, 101 kPa, x1 = 0.02	1.04 mPa·s
303.15 K, 101 kPa, x1 = 0.05	1.467 mPa·s
303.15 K, 101 kPa, x1 = 0.07069	1.735 mPa·s
303.15 K, 101 kPa, x1 = 0.1	2.041 mPa·s
303.15 K, 101 kPa, x1 = 0.2	2.504 mPa·s
303.15 K, 101 kPa, x1 = 0.23	2.573 mPa·s
303.15 K, 101 kPa, x1 = 0.41	2.434 mPa·s
303.15 K, 101 kPa, x2 = 0.1049	1.789 mPa·s
303.15 K, 101 kPa, x2 = 0.26	1.863 mPa·s
303.15 K, 101 kPa, x2 = 0.4678	2.158 mPa·s
303.15 K, 101 kPa, x2 = 0.6079	2.439 mPa·s
303.15 K, 101 kPa, x2 = 0.685	2.55 mPa·s
303.15 K, 101 kPa, x2 = 0.7249	2.557 mPa·s
303.15 K, 101 kPa, x2 = 0.805	2.451 mPa·s
303.15 K, 101 kPa, x2 = 0.89	2.007 mPa·s
303.15 K, 101 kPa, x2 = 0.9549	1.419 mPa·s
308.15 K, 101 kPa, x1 = 0.01	0.815 mPa·s
308.15 K, 101 kPa, x1 = 0.02	0.923 mPa·s
308.15 K, 101 kPa, x1 = 0.032	1.056 mPa·s
308.15 K, 101 kPa, x1 = 0.05	1.263 mPa·s
308.15 K, 101 kPa, x1 = 0.07069	1.48 mPa·s
308.15 K, 101 kPa, x1 = 0.1	1.717 mPa·s
308.15 K, 101 kPa, x1 = 0.11	1.749 mPa·s
308.15 K, 101 kPa, x1 = 0.2	2.109 mPa·s
308.15 K, 101 kPa, x1 = 0.23	2.142 mPa·s
308.15 K, 101 kPa, x1 = 0.41	2.044 mPa·s
308.15 K, 101 kPa, x2 = 0.1049	1.56 mPa·s

From the CheMixHub viscosity set
